According to patent US20250002450A1, “CATIONIC STEROID COMPOUNDS, METHOD OF OBTAINING THEREOF, FORMULATIONS COMPRISING THEREOF AND THEIR USES” (UNIVERSIDADE DO PORTO, priority 2021, published 2025):
Converted amounts (≈) assume the structure as drawn.

How the values were obtained:
[1] = tested on: Listonella anguilarum ATCC 1924; experiment: Antibacterial MIC/MBC (broth microdilution); format: cell-based; details: Listonella anguilarum ATCC 1924
Excerpt: (§1) Twelve reference bacterial strains and nine MDR clinically relevant bacterial strains were used in this study. Gram-negative bacteria comprised reference strains E. coli ATCC 25922, K. pneumoniae ATCC 13883, Salmonella enterica serovar Typhimurium CECT 443, P. aeruginosa ATCC 27853, A. baumannii ATCC 19606, C. jejuni ATCC 33560 (ATCC—American Type Culture Collection; CECT—Colección Espanola de Cultivos Tipo); clinical isolates E. coli SA/2, an extended-spectrum β-lactamase (ESBL)-producing strain and P. aeruginosa 33b, a pan-drug-resistant isolate; and animal isolates C. jejuni P5/4, a ciprofloxacin-resistant strain, C. jejuni 4432, C. jejuni 4433, C. jejuni 4448, and E. coli 2252, a COL-resistant strain [42]. Gram-positive strains included S. aureus ATCC 29213, E. faecalis ATCC 29212, S. pyogenes ATCC 19615, and environmental isolates methicillin-resistant S. aureus (MRSA) 66/1 [43], and VAN-resistant enterococci (VRE) E. faecalis B3/101 [44]. Gram-negative fish pathogens Yersinia ruckeri ATCC 29473, Listonella anguillarum ATCC 1924, and Tenacibaculum maritimum ATCC 43397 were also included.
(§2) Strains were kept in Trypto-Casein Soy agar (TSA—Biokar Diagnostics, Allone, Beauvais, France) slants and, before each assay, were sub-cultured in Mueller-Hinton agar (MHA—Biokar Diagnostics, Allone, Beauvais, France). Y. ruckeri ATCC 29473 and L. anguillarum ATCC 1924 were kept in Nutrient Agar (Condalab, Madrid, Spain) and T. maritimum ATCC 43397 was kept in TMM agar (Condalab, Madrid, Spain), and were sub-cultured in the respective culture media before each assay. For S. pyogenes ATCC 19615, CAMHB was supplemented with 3.75% lysed horse blood (LBH—Oxoid, Basingstoke, England), whereas for C. jejuni it was supplemented with 2.5% LHB. Colony-forming unit counts of the inoculum were conducted to determine the initial inoculum size (which should be approximately 5×10^5 CFU/mL). Sterility and growth controls were included in each assay. The 96-well U-shaped untreated polystyrene microtiter plates were incubated for 20 h at 37 degrees C. (42 degrees C. for C. jejuni, in a microaerophilic atmosphere) and the minimal inhibitory concentration (MIC) was determined as the lowest concentration of compound that prevented visible growth. The minimal bactericidal concentration (MBC) was determined by spreading 100 μL of the content of the wells with no visible growth on MH plates. The MBC was determined as the lowest concentration of compound that killed 99.9% of the initial inoculum after overnight incubation at 37 degrees C. Two independent assays were performed for reference and MDR strains.
(§3) An initial screening of the antibacterial activity of the compounds was performed by the Kirby-Bauer disk diffusion method, as recommended by the Clinical and Laboratory Standards Institute (CLSI). Briefly, sterile 6 mm blank paper disks (Oxoid, Basingstoke, England) impregnated with 15 μg of each compound were placed on inoculated MH agar plates. A blank disk with dimethylsulfoxide (DMSO) was used as a negative control. MH inoculated plates were incubated for 18-20 h at 37 degrees C. At the end of incubation, the inhibition halos where measured. The MIC was used to determine the antibacterial activity of each compound, in accordance with the recommendations of the CLSI. Two-fold serial dilutions of the compounds were prepared in Mueller-Hinton Broth 2 (MHB2—Sigma-Aldrich, St. Louis, MO, USA) within the concentration range of 0.062-64 μg/mL. CTX ranging between 0.031-16 μg/mL was used as a control. Sterility and growth controls were included in each assay. Purity checks and colony counts of the inoculum suspensions were also performed in order to ensure that the final inoculum density closely approximates the intended number (5×10^5 CFU/mL). The MIC was determined as the lowest concentration of compound that inhibited growth of the bacteria. The MBC was assessed by spreading 10 μL of culture collected from wells showing no visible growth on MH agar plates. […]

[2] = tested on: Acinetobacter baumannii ATCC 19606; experiment: Antibacterial MIC/MBC (broth microdilution); format: cell-based; details: Acinetobacter baumannii ATCC 19606
Excerpt: as §1, §2, §3

[3] = tested on: Klebsiella pneumoniae ATCC 13883; experiment: Antibacterial MIC/MBC (broth microdilution); format: cell-based; details: Klebsiella pneumoniae ATCC 13883
Excerpt: as §1, §2, §3

[4] = tested on: Campylobacter jejuni ATCC 33560; experiment: Antibacterial MIC/MBC (broth microdilution); format: cell-based; details: Campylobacter jejuni ATCC 33560
Excerpt: as §1, §2, §3

[5] = tested on: Staphylococcus aureus ATCC 29213; experiment: Antibacterial MIC/MBC (broth microdilution); format: cell-based
Excerpt: as §1, §2, §3

[6] = tested on: Escherichia coli ATCC 25922; experiment: Antibacterial MIC/MBC (broth microdilution); format: cell-based; details: Escherichia coli ATCC 25922
Excerpt: as §1, §2, §3

[7] = tested on: Pseudomonas aeruginosa ATCC 27853; experiment: Antibacterial MIC/MBC (broth microdilution); format: cell-based; details: Pseudomonas aeruginosa ATCC 27853
Excerpt: as §1, §2, §3

[8] = tested on: Salmonella enterica serovar Typhimurium CECT 443; experiment: Antibacterial MIC/MBC (broth microdilution); format: cell-based
Excerpt: as §1, §2, §3

[9] = tested on: Yersinia ruckeri ATCC 29473; experiment: Antibacterial MIC/MBC (broth microdilution); format: cell-based
Excerpt: as §1, §2, §3

[10] = tested on: Streptococcuss pyogenes ATCC 19615; experiment: Antibacterial MIC/MBC (broth microdilution); format: cell-based, Streptococcus pyogenes; details: Streptococcuss pyogenes ATCC 19615
Excerpt: as §1, §2, §3

[11] = tested on: E. coli 2252 (COL-resistant); experiment: Antibacterial MIC/MBC (broth microdilution); format: cell-based, Escherichia coli; details: E. coli 2252 (COL-resistant)
Excerpt: as §1, §2, §3

E. coli SA/2 (ESBL) = experiment: Antibacterial MIC/MBC (broth microdilution); format: cell-based, Escherichia coli; details: E. coli SA/2 (ESBL)
Excerpt: as §1, §2, §3

P. aeruginosa 33b (PDR) = experiment: Antibacterial MIC/MBC (broth microdilution); format: cell-based, Pseudomonas aeruginosa; details: P. aeruginosa 33b (PDR)
Excerpt: as §1, §2, §3

S. aureus 66/1 (MRSA) = experiment: Antibacterial MIC/MBC (broth microdilution); format: cell-based, Staphylococcus aureus
Excerpt: as §1, §2, §3

[12] = tested on: Tenacibaculum maritimum ATCC 43397; experiment: Antibacterial disk diffusion; format: cell-based; details: Tenacibaculum maritimum ATCC 43397, footnote *
Excerpt: as §1, §2, §3

E. faecalis B3/101 (VRE) = experiment: Antibacterial MIC/MBC (broth microdilution); format: cell-based, Enterococcus faecalis; details: E. faecalis B3/101 (VRE)
Excerpt: as §1, §2, §3

[13] = tested on: Enterococcuss faecalis ATCC 29212; experiment: Antibacterial MIC/MBC (broth microdilution); format: cell-based, Enterococcus faecalis; details: Enterococcuss faecalis ATCC 29212
Excerpt: as §1, §2, §3

C. jejuni 4448 = experiment: Antibacterial MIC/MBC (broth microdilution); format: cell-based, Campylobacter jejuni
Excerpt: as §1, §2, §3

C. jejuni 4433 = experiment: Antibacterial MIC/MBC (broth microdilution); format: cell-based, Campylobacter jejuni
Excerpt: as §1, §2, §3

C. jejuni P5/4 = experiment: Antibacterial MIC/MBC (broth microdilution); format: cell-based, Campylobacter jejuni
Excerpt: as §1, §2, §3

C. jejuni 4432 = experiment: Antibacterial MIC/MBC (broth microdilution); format: cell-based, Campylobacter jejuni
Excerpt: as §1, §2, §3

Structure (SMILES): C[C@H](CCC(=O)NCCc1nc2ccccc2[nH]1)[C@H]1CC[C@H]2[C@@H]3CC[C@@H]4C[C@H](O)CC[C@]4(C)[C@H]3C[C@H](O)[C@]12C [Compound 7, (R)—N-(2-(1H-benzo[d]imidazol-2-yl)ethyl)-4-((3R,5R,8R,9S,10S,12S,13R,14S,17R)-3,12-dihydroxy-10,13-dimethylhexadecahydro-1H-cyclopenta[a]phenanthren-17-yl) pentanamide]
- MBC [1]: >64 µg/mL
- MIC [1]: >64 µg/mL
- MBC [2]: >64 µg/mL
- MIC [2]: >64 µg/mL
- MBC [3]: >64 µg/mL
- MIC [3]: >64 µg/mL
- MBC [4]: >64 µg/mL
- MIC [4]: >64 µg/mL
- MBC [5]: >64 µg/mL
- MIC [5]: 8 µg/mL (≈ 14.9 µM)
- MBC [6]: >64 µg/mL
- MIC [6]: >64 µg/mL
- MBC [7]: >64 µg/mL
- MIC [7]: >64 µg/mL
- MBC [8]: >64 µg/mL
- MIC [8]: >64 µg/mL
- MBC [9]: >64 µg/mL
- MIC [9]: >64 µg/mL
- MBC [10]: >64 µg/mL
- MIC [10]: >64 µg/mL
- MBC [11]: >64 µg/mL
- MIC [11]: >64 µg/mL
- MBC (E. coli SA/2 (ESBL)): >64 µg/mL
- MIC (E. coli SA/2 (ESBL)): >64 µg/mL
- MBC (P. aeruginosa 33b (PDR)): >64 µg/mL
- MIC (P. aeruginosa 33b (PDR)): >64 µg/mL
- MBC (S. aureus 66/1 (MRSA)): >64 µg/mL
- MIC (S. aureus 66/1 (MRSA)): 16 µg/mL (≈ 29.9 µM)
- Inhibition zone diameter (disk diffusion) [12]: 9 mm
- MBC (E. faecalis B3/101 (VRE)): >64 µg/mL
- MIC (E. faecalis B3/101 (VRE)): >64 µg/mL
- MBC [13]: >64 µg/mL
- MIC [13]: >64 µg/mL
- MBC (C. jejuni 4448): >64 µg/mL
- MIC (C. jejuni 4448): >64 µg/mL
- MBC (C. jejuni 4433): >64 µg/mL
- MIC (C. jejuni 4433): >64 µg/mL
- MBC (C. jejuni P5/4): >64 µg/mL
- MIC (C. jejuni P5/4): >64 µg/mL
- MBC (C. jejuni 4432): >64 µg/mL
- MIC (C. jejuni 4432): >64 µg/mL
